Reference: patent publication US20100226857A1, “TUMOR CELL DIFFERENTIATION AGENTS AS CHEMICAL INHIBITORS AND TREATMENTS FOR INTRACELLULAR PARASITES” (priority 2006, published 2010)

Legend:
[1] = tested on: MCF-7 cells; assay: Cell death ELISA (apoptosis); assay type: cell-based, human
Description: Cell Death Enzyme-Linked Immunosorbent Assay: We quantified cytoplasmic nucleosomes using the Cell Death Detection […] kit (Roche Molecular Biochemicals, Indianapolis, Ind.) in MCF-7 cells plated in triplicate into 96-well plates. The cytoplasmic fractions from attached cells in each well were assayed in duplicate for the presence of nucleosomes according to the directions from the suppliers. The apoptotic response was measured by the nucleosome-enrichment fraction calculated as the ratio of the absorbance (405 nm) of drug-treated cultures/solvent-exposed cultures.

[2] = tested on: MCF-7 cells; assay: Comet assay for DNA damage; assay type: cell-based, human
Description: Comet Analysis: The comet assay is a single-cell gel electrophoresis method for measuring DNA damage. MCF-7 cells (2×10^5/35-mm^2 dish) were treated 12 h after plating. Twenty-four hours later, the cells were harvested and resuspended (1.5×10^5 cells/ml) in ice-cold PBS. The PBS cell suspension (50 ul) was mixed with 500 ul of 42° C. low-melting point agarose, spread evenly (75 ul) onto a Comet Slide (Trevigen, Gaithersburg, Md.), and allowed to harden. The slides were then immersed in ice-cold lysis solution (Trevigen) for 45 mm to lyse the cells and then transferred to freshly prepared alkali solution (300 mM NaOH and 1 mM EDTA, […]) for 45 mM. at room temperature to denature the DNA. Electrophoresis was performed at 4° C. Slides were air-dried overnight at room temperature and then stained with SYBR Green (Trevigen). Comets were visualized by fluorescence microscopy at 630× magnification with the aid of an antifade solution. Comet images were analyzed using the LAI Automated Comet Assay Analysis System (Loats Associates, Inc., Westminster, Md.). DNA damage was quantified in 80 comets per treatment/experiment using the tail moment [Tail moment [(% DNA) (distance traveled)]].

[3] = tested on: MCF-7 human breast cancer cells; assay: ESR free radical (ROS) measurement in MCF-7 cell suspensions with DMPO; assay type: cell-based; details: for relative peak heights of the ESR signals (mean±range, n=2): 1×10^6 MCF-7 cells, 5 min at 37° C.
Description: Free Radical Measurements: All ESR measurements were conducted using a Bruker EMIR spectrometer (Bruker Instruments Inc., Billerica, Mass.) and a flat-cell assembly. Hyperfine couplings were measured (to 0.1 G) directly from magnetic field separation using potassium tetraperoxochromate (K3CrO8) and 1,1-diphenyl-2-picrylhydrazyl as reference standards. The relative radical concentration was estimated by multiplying half of the peak height by (ΔHpp)^2, where (ΔHpp) represents peak-to-peak width. The Acquisit program was used for data acquisitions and analyses. MCF-7 cells (2.0×10^6 cells/60-mm^2 dish) were harvested 48 h after plating by trypsinization and collected at room temperature by centnfugation (225 g, 5 min). Cells were washed once with ice-cold PBS and resuspended in ice-cold PBS at 2×10^6 cells/ml. Radical production was measured in the presence of the spin trap 5,5-dimethyl-1-pyrroline-N-oxide (DMPO; Aldrich Chemical Co., Milwaukee, Wis.). DMPO (200 mM) and 1×10^6 cells test agents were mixed in 1.0 ml of PBS, incubated at 37° C. for 5 mm, and then transferred to a flat cell for ESR measurements.

[4] = tested on: MCF-7 cells; assay: Colorimetric determination of reduced and oxidized glutathione; assay type: cell-based, human; details: after 1 h, P<0.05
Description: Colorimetric Determination of Reduced and Oxidized Glutathione: The GSH and GSSG concentrations in MCF-7 cells (3×10^6 cell/60 mm^2 dish) were measured enzymatically using the GSHI GSSG-412 kit (Oxis Research, Portland, Oreg.). GSSG and GSH standards were prepared in 5% metaphosphoric acid. Cell samples were prepared in 5% metaphosphoric acid with or without 1-methyl-2-vinyl-pyridium trifluoromethane sulfonate, a GSH-specific scavenger. Ellman's reagent (5′,5-dithiobis-2-nitrobenzoic acid) reacts with GSH to form a product with an absorption maximum at 412 nm. GSSG was determined using glutathione reductase to reduce GSSG to GSH followed by reaction with Ellman's reagent.

[5] = tested on: T. gondii tachyzoites; assay: NSC3852 inhibition of T. gondii tachyzoite proliferation in HS68 cells (Example 4); assay type: cell-based; details: Toxoplasma gondii, approximately 60 hours, n=5 experiments, read-out: median IC50 for inhibition of T. gondii tachyzoite proliferation
Description: Briefly, T. gondii tachyzoites (1×10^5) were introduced into individual wells in a 48-well culture dish containing confluent monolayers of host cells (normal human skin fibroblasts HS68). Approximately 60 hours later, the tachyzoites were harvested from the medium and counted. […] Data points wee the average of triplicate determinations at every concentration of NSC3852 used.

Compound: O=Nc1ccc(O)c2ncccc12 [NSC3852, 5-nitroso-8-quinolinol]
- time of peak apoptosis [1]: 48 h
- DNA damage (comet tail moment) [2]: maximal at 24 h
- relative peak heights of the ESR signals (mean±range, n=2) ([3]; 2 uM): 70±4 mm
- ESR signal indicative of ROS production in MCF-7 cells ([3]; 10 uM NSC3852, 8 uM NSC2039): indicative of the DMPO-OH adduct, was observed
- relative peak heights of the ESR signals (mean±range, n=2) ([3]; 10 uM): 109±3 mm
- decrease in [GSH]/[GSSG] compared with control cells [4]: 20%
- IC50 [5]: 79 nM
